In patent US11472778B2, “Hepatitis C virus NS3/4A protease inhibitors” (priority 2017, dated 2022):
Read-outs that look alike come from different tables or passages of the source.

Key:
[1] = rcm bond, 15-membered ring, Zhan 1b, 1,2-DCE, 70.0 °C
[2] = target: T1, GT1a D168A NS3/4A protease (UniProt P27958, C1185S/D1194A, species not given); type: biochemical, Hepatitis C virus; settings: read-out: Ki (nM) GT1a D168A NS3/4A Protease
T1 construct: Ki (nM) GT1a D168A NS3/4A Protease
Outline: (§1)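 NS3/4A protease (2 nM; wild-type GT1a or D168A) pre-incubated 1 h at room temperature with increasing inhibitor in 50 mM Tris pH 7.5, 5% glycerol, 10 mM DTT, 0.6 mM LDAO, 4% DMSO. Ki from three independent data sets per construct; ΔG=RTlnKi.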

[3] = target: T2, GT1a D168A NS3/4A protease (UniProt P27958, D1194A, species not given); type: biochemical, Hepatitis C virus
T2 construct: rows headed: Ki (nM) D168A; Ki D168A; other: D168A variant
Outline: as §1

[4] = target: GT1a D168A NS3/4A protease; type: biochemical, Hepatitis C virus; settings: for Ki (Fold change) GT1a D168A NS3/4A Protease: Table 3, Ki D168A relative to GT1a WT
Outline: as §1

[5] = target: T3, wild-type GT1a NS3/4A protease (UniProt P27958); type: biochemical, Hepatitis C virus
T3 construct: Ki WT; other: wild-type HCV NS3/4A protease
Outline: as §1

[6] = target: T4, wild-type GT1a NS3/4A protease (UniProt P27958, C1185S, species not given); type: biochemical, Hepatitis C virus; settings: read-out: Ki (nM) GT1a WT NS3/4A Protease
T4 construct: Ki (nM) GT1a WT NS3/4A Protease
Outline: as §1

[7] = target: T5, GT3a NS3/4A protease (Hepatitis C virus genotype 3a, UniProt Q81495); assay: biochemical; settings: for Ki (Fold change) GT3a NS3/4A Protease: Table 3, Ki GT3a relative to GT1a WT
T5 construct: drug-resistant variant D168A, and GT3a NS3/4A protease; made in house; host or cells: Escherichia coli BL21(DE3)
T5 sequence (Q81495 1033-1214): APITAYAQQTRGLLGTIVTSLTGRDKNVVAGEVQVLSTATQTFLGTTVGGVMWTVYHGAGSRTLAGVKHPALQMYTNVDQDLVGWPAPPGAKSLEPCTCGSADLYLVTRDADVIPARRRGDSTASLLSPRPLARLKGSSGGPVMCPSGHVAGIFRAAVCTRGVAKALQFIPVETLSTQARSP
Outline: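 Protease at 2 nM pre-incubated 1 h at room temperature with increasing inhibitor concentrations in 50 mM Tris, 5% glycerol, 10 mM DTT, 0.6 mM LDAO, 4% DMSO. Three independent data sets per inhibitor and construct.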

[8] = test system: wild-type HCV replicon in Huh7 cells; assay: Cell-based drug susceptibility (replicon) assay, wild-type; settings: Hepatitis C virus, read-out: Replicon EC50 (nM) WT
Outline: (§2)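 Variants made by site-directed mutagenesis in a Con1 (genotype 1b) luciferase reporter replicon carrying H77 (genotype 1a) NS3. Replicon RNA electroporated into Huh7 cells; luciferase (RLU) measured 96 h post-electroporation across increasing protease inhibitor concentrations.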

[9] = test system: HCV replicon A156T variant in Huh7 cells; assay: microbe, parasite or virus in culture; type: cell-based, Hepatitis C virus; settings: for EC50: Hepatitis C virus
Outline: as §2

[10] = test system: HCV replicon D168A variant in Huh7 cells; assay: microbe, parasite or virus in culture; type: cell-based, Hepatitis C virus; settings: for EC50: Hepatitis C virus
Outline: as §2

[11] = test system: HCV replicon R155K variant in Huh7 cells; assay: microbe, parasite or virus in culture; type: cell-based, Hepatitis C virus; settings: for EC50: Hepatitis C virus
Outline: as §2

[12] = test system: HCV replicon D168V variant in Huh7 cells; assay: microbe, parasite or virus in culture; type: cell-based, Hepatitis C virus; settings: for EC50: Hepatitis C virus
Outline: as §2

[13] = target: GT1a R155K NS3/4A protease (UniProt P27958, R1181K, species not given); type: biochemical, Hepatitis C virus
Outline: (§3)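 2 nM NS3/4A protease (GT1a, R155K and D168A constructs) pre-incubated 1 h at room temperature with increasing inhibitor concentrations in 50 mM Tris pH 7.5, 5% glycerol, 10 mM DTT, 0.6 mM LDAO, 4% DMSO. Three independent data sets per inhibitor and construct; ΔG of binding derived from Ki as ΔG=RTlnKi.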

[14] = target: GT1a R155K NS3/4A protease; type: biochemical, Hepatitis C virus; settings: fold change in Ki, R155K relative to WT
Outline: as §3

[15] = Huh-7, 96 h, Table 2, Huh7 cells, luciferase 96 h
[16] = Huh-7, 96 h, read-out: Replicon EC50 (nM) A156T, Table 2, Huh7 cells, luciferase 96 h
[17] = Huh-7, read-out: Replicon EC50 (nM) A156T, Table 4
[18] = Table 4, relative to WT replicon
[19] = Huh-7, 96 h, read-out: Replicon EC50 (nM) D168A, Table 2, Huh7 cells, luciferase 96 h
[20] = Huh-7, read-out: Replicon EC50 (nM) D168A, Table 4
[21] = Huh-7, 96 h, read-out: Replicon EC50 (nM) R155K, Table 2, Huh7 cells, luciferase 96 h
[22] = Huh-7, read-out: Replicon EC50 (nM) R155K, Table 4
[23] = Huh-7, 96 h, read-out: Replicon EC50 (nM) D168V, Table 2, Huh7 cells, luciferase 96 h
[24] = Huh-7, read-out: Replicon EC50 (nM) D168V, Table 4

## CCc1nc2ccc(OC)cc2nc1O[C@@H]1C[C@H]2C(=O)N[C@]3(C(=O)NS(=O)(=O)C4CC4)C[C@H]3/C=C\CCCCC[C@H](NC(=O)OC(C)(C)C)C(=O)N2C1 [Compound 2, tert-Butyl ((2R,6S,13aS,14aR,16aS,Z)-14a-((cyclopropylsulfonyl)carbamoyl)-2-((3-ethyl-7-methoxyquinoxalin-2-yl)oxy)-5,16-dioxo-1,2,3,5,6,7,8,9,10,11,13a,14,14a,15,16,16a-hexadecahydrocyclopropa[e]pyrrolo[1,2-a][1,4]diazacyclopentadecin-6-yl)carbamate]
[1]; 6.0 mM
  ring closure, isolated yield: 53%
[2]; Table 1
  Ki: 82.4 nM
[2]; Table 3
  Ki: 82.4 ± 4.4 nM
[3]; read-out: Ki (nM) D168A, Table 8, linear inhibitors
  Ki: 91 ± 10 nM
[3]; read-out: Ki D168A, D168A variant
  Ki: 91 ± 10 nM
[4]
  Ki (Fold change) GT1a D168A NS3/4A Protease: (25) fold
[4]; fold change in Ki, D168A relative to WT
  Ki D168A (fold change): 46
[5]; read-out: Ki (nM) WT, Table 8, linear inhibitors
  Ki: 2 nM
[5]; read-out: Ki WT, wild-type HCV NS3/4A protease
  Ki: 2 ± 0.1 nM
[6]; Table 1
  Ki: 3.29 nM
[6]; Table 3
  Ki: 3.29 nM
[7]
  Ki: 204 nM
  Ki (Fold change) GT3a NS3/4A Protease: (62) fold
[8]; [15]
  EC50: 0.33 nM
[8]; Huh-7, Table 4
  EC50: 0.33 nM
[8]; Huh-7, Table 9
  EC50: 0.33 nM
[9]; [16]
  EC50: 9.65 nM
[9]; [17]
  EC50: 9.65 nM
[9]; Huh-7, read-out: Replicon EC50 (nM) A156T, Table 9
  EC50: 9.7 nM
[9]; [18]
  Replicon EC50 (Fold change) A156T: (29) fold
[9]; Table 9, relative to WT
  Replicon EC50 (Fold change) A156T: (29) fold
[10]; [19]
  EC50: 6.31 nM
[10]; [20]
  EC50: 6.31 nM
[10]; Huh-7, read-out: Replicon EC50 (nM) D168A, Table 9
  EC50: 6.3 nM
[10]; [18]
  Replicon EC50 (Fold change) D168A: (19) fold
[10]; Table 9, relative to WT
  Replicon EC50 (Fold change) D168A: (19) fold
[11]; [21]
  EC50: 1.75 nM
[11]; [22]
  EC50: 1.75 nM
[11]; Huh-7, read-out: Replicon EC50 (nM) R155K, Table 9
  EC50: 1.8 nM
[11]; [18]
  Replicon EC50 (Fold change) R155K: (5) fold
[11]; Table 9, relative to WT
  Replicon EC50 (Fold change) R155K: (5.5) fold
[12]; [23]
  EC50: 9.1 nM
[12]; [24]
  EC50: 9.1 nM
[12]; Huh-7, read-out: Replicon EC50 (nM) D168V, Table 9
  EC50: 9.1 nM
[12]; [18]
  Replicon EC50 (Fold change) D168V: (28) fold
[12]; Table 9, relative to WT
  Replicon EC50 (Fold change) D168V: (28) fold
[13]; read-out: Ki (nM) R155K, Table 8, linear inhibitors
  Ki: 3.1 ± 0.34 nM
[13]; read-out: Ki R155K, R155K variant
  Ki: 3.1 ± 0.34 nM
[14]
  Ki R155K (fold change): 1.6

## CCc1nc2ccc(OC)cc2nc1O[C@@H]1C[C@H]2C(=O)N[C@]3(C(=O)NS(=O)(=O)C4(C)CC4)C[C@H]3/C=C\CCCCC[C@H](NC(=O)OC(C)(C)C)C(=O)N2C1 [Compound 19a, tert-Butyl ((2R,6S,13aS,14aR,16aS,Z)-2-((3-ethyl-7-methoxyquinoxalin-2-yl)oxy)-14a-(((1-methylcyclopropyl)sulfonyl)carbamoyl)-5,16-dioxo-1,2,3,5,6,7,8,9,10,11,13a,14,14a,15,16,16a-hexadecahydrocyclopropa[e]pyrrolo[1,2-a][1,4]diazacyclopentadecin-6-yl)carbamate]
[1]; from C=CCCCCC[C@H](NC(=O)OC(C)(C)C)C(=O)N1C[C@H](Oc2nc3cc(OC)ccc3nc2CC)C[C@H]1C(=O)N[C@]1(C(=O)NS(=O)(=O)C2(C)CC2)C[C@H]1C=C, 6.0 mM
  ring closure, isolated yield: 71%
[2]; Table 1
  Ki: 55.2 nM
[2]; Table 3
  Ki: 55.2 ± 5.3 nM
[4]
  Ki (Fold change) GT1a D168A NS3/4A Protease: (30) fold
[6]; Table 1
  Ki: 1.82 nM
[6]; Table 3
  Ki: 1.82 nM
[7]
  Ki: 171 nM
  Ki (Fold change) GT3a NS3/4A Protease: (94) fold
[8]; [15]
  EC50: 0.43 nM
[8]; Huh-7, Table 4
  EC50: 0.43 nM
[9]; [16]
  EC50: 4.52 nM
[9]; [17]
  EC50: 4.52 nM
[9]; [18]
  Replicon EC50 (Fold change) A156T: (11) fold
[10]; [19]
  EC50: 4.97 nM
[10]; [20]
  EC50: 4.97 nM
[10]; [18]
  Replicon EC50 (Fold change) D168A: (12) fold
[11]; [21]
  EC50: 1.8 nM
[11]; [22]
  EC50: 1.8 nM
[11]; [18]
  Replicon EC50 (Fold change) R155K: (4) fold
[12]; [23]
  EC50: 6.42 nM
[12]; [24]
  EC50: 6.42 nM
[12]; [18]
  Replicon EC50 (Fold change) D168V: (15) fold

## COc1ccc2nc(Cl)c(O[C@@H]3C[C@H]4C(=O)N[C@]5(C(=O)NS(=O)(=O)C6(C)CC6)C[C@H]5/C=C\CCCCC[C@H](NC(=O)OC(C)(C)C)C(=O)N4C3)nc2c1 [Compound 19c, tert-Butyl ((2R,6S,13aS,14aR,16aS,Z)-2-((3-chloro-7-methoxyquinoxalin-2-yl)oxy)-14a-(((1-methylcyclopropyl)sulfonyl)carbamoyl)-5,16-dioxo-1,2,3,5,6,7,8,9,10,11,13a,14,14a,15,16,16a-hexadecahydrocyclopropa[e]pyrrolo[1,2-a][1,4]diazacyclopentadecin-6-yl)carbamate]
[1]; 5.0 mM
  ring closure, isolated yield: 86%
[2]; Table 1
  Ki: 77.7 nM
[2]; Table 3
  Ki: 77.7 ± 6.1 nM
[4]
  Ki (Fold change) GT1a D168A NS3/4A Protease: (70) fold
[6]; Table 1
  Ki: 1.11 nM
[6]; Table 3
  Ki: 1.11 nM
[7]
  Ki: 53.6 nM
  Ki (Fold change) GT3a NS3/4A Protease: (48) fold
[8]; Huh-7, Table 4
  EC50: 0.18 nM
[9]; [16]
  EC50: 8.86 nM
[9]; [17]
  EC50: 8.86 nM
[9]; [18]
  Replicon EC50 (Fold change) A156T: (49) fold
[10]; [19]
  EC50: < 2 nM
[10]; [20]
  EC50: 1.07 nM
[10]; [18]
  Replicon EC50 (Fold change) D168A: (6) fold
[11]; [22]
  EC50: 0.4 nM
[11]; [18]
  Replicon EC50 (Fold change) R155K: (2) fold
[12]; [24]
  EC50: 0.49 nM
[12]; [18]
  Replicon EC50 (Fold change) D168V: (3) fold
